Results from PubChem BioAssay (NCI).
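Cultured in 96-well plates, cells were exposed to test compound for 48 hours across five concentrations. GI50 is the concentration that inhibits growth by half. TGI: concentration producing complete growth inhibition.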

What was measured:
Assay in all cases: DTP human tumour cell line panel, 48 h
[1] = tested on: EKVX NSCLC
[2] = tested on: SK-MEL-28 melanoma
[3] = tested on: MDA-MB-435
[4] = tested on: SNB-19 CNS
[5] = tested on: K-562 leukemia
[6] = tested on: A549 NSCLC
[7] = tested on: IGROV1 ovarian
[8] = tested on: SF-539 CNS
[9] = tested on: MDA-MB-231 breast
[10] = tested on: HT29 colon
[11] = tested on: SK-OV-3 ovarian
[12] = tested on: M14 melanoma
[13] = tested on: MALME-3M melanoma
[14] = tested on: UACC-257 melanoma
[15] = tested on: LOX IMVI melanoma
[16] = tested on: COLO 205 colon
[17] = tested on: DU-145 prostate
[18] = tested on: PC-3 prostate
[19] = tested on: BT-549 breast
[20] = tested on: KM12 colon
[21] = tested on: HCT-15 colon
[22] = tested on: HL-60(TB) leukemia
[23] = tested on: T-47D breast
[24] = tested on: NCI-H522 lung
[25] = tested on: SK-MEL-2 melanoma
[26] = tested on: SK-MEL-5 melanoma
[27] = tested on: OVCAR-4 ovarian
[28] = tested on: ACHN renal
[29] = tested on: SNB-75 CNS
[30] = tested on: CAKI-1 renal
[31] = tested on: NCI-H23 lung
[32] = tested on: HCC-2998 colon
[33] = tested on: NCI/ADR-RES ovarian
[34] = tested on: OVCAR-5 ovarian
[35] = tested on: HOP-92 NSCLC
[36] = tested on: MOLT-4 leukemia
[37] = tested on: MDA-MB-468 breast
[38] = tested on: HS 578T breast
[39] = tested on: SN12C renal
[40] = tested on: SR leukemia
[41] = tested on: RXF 393 renal
[42] = tested on: NCI-H460 lung
[43] = tested on: HCT-116 colon
[44] = tested on: CCRF-CEM leukemia
[45] = tested on: SF-295 CNS
[46] = tested on: OVCAR-3 ovarian
[47] = tested on: NCI-H226 lung
[48] = tested on: UACC-62 melanoma
[49] = tested on: A498 renal
[50] = tested on: TK-10 renal
[51] = tested on: SW-620 colon
[52] = tested on: HOP-62 NSCLC
[53] = tested on: 786-0 renal
[54] = tested on: MCF7 breast
[55] = tested on: UO-31 renal

[2H]C([2H])([2H])Oc1ccc2ncc(C#Cc3cncc(C(=O)Nc4ccc(CN5CCN(C)CC5)c(C(F)(F)F)c4)c3)n2n1
GI50 [1]: 606 nM
TGI [1]: 2220 nM
GI50 [2]: 1160 nM
TGI [2]: 2410 nM
GI50 [3]: 321 nM
TGI [3]: 1770 nM
GI50 [4]: 1390 nM
TGI [4]: 2640 nM
GI50 [5]: 9.42 nM
TGI [5]: 94200 nM
GI50 [6]: 742 nM
TGI [6]: 2370 nM
GI50 [7]: 581 nM
TGI [7]: 2040 nM
GI50 [8]: 112 nM
TGI [8]: 1060 nM
GI50 [9]: 278 nM
TGI [9]: 1530 nM
GI50 [10]: 303 nM
TGI [10]: 1410 nM
GI50 [11]: 4030 nM
TGI [11]: 18600 nM
GI50 [12]: 377 nM
TGI [12]: 1620 nM
GI50 [13]: 291 nM
TGI [13]: 1490 nM
GI50 [14]: 995 nM
TGI [14]: 3730 nM
GI50 [15]: 446 nM
TGI [15]: 1800 nM
GI50 [16]: 238 nM
TGI [16]: 719 nM
GI50 [17]: 930 nM
TGI [17]: 2150 nM
GI50 [18]: 940 nM
TGI [18]: 2350 nM
GI50 [19]: 833 nM
TGI [19]: 10400 nM
GI50 [20]: 9.42 nM
TGI [20]: 1350 nM
GI50 [21]: 387 nM
TGI [21]: 1640 nM
GI50 [22]: 101 nM
TGI [22]: 1990 nM
GI50 [23]: 12100 nM
TGI [23]: 57300 nM
GI50 [24]: 1140 nM
TGI [24]: 7230 nM
GI50 [25]: 1090 nM
TGI [25]: 6340 nM
GI50 [26]: 2270 nM
TGI [26]: 6890 nM
GI50 [27]: 1000 nM
TGI [27]: 2630 nM
GI50 [28]: 574 nM
TGI [28]: 11200 nM
GI50 [29]: 1920 nM
TGI [29]: 6090 nM
GI50 [30]: 619 nM
TGI [30]: 4540 nM
GI50 [31]: 350 nM
TGI [31]: 1630 nM
GI50 [32]: 1030 nM
TGI [32]: 2700 nM
GI50 [33]: 1180 nM
TGI [33]: 2650 nM
GI50 [34]: 507 nM
TGI [34]: 1800 nM
GI50 [35]: 173 nM
TGI [35]: 833 nM
GI50 [36]: 66.8 nM
TGI [36]: 2020 nM
GI50 [37]: 1200 nM
TGI [37]: 2950 nM
GI50 [38]: 444 nM
TGI [38]: 6360 nM
GI50 [39]: 498 nM
TGI [39]: 1810 nM
GI50 [40]: 60.6 nM
TGI [40]: 94200 nM
GI50 [41]: 1150 nM
TGI [41]: 2500 nM
GI50 [42]: 239 nM
TGI [42]: 1810 nM
GI50 [43]: 67.7 nM
TGI [43]: 1240 nM
GI50 [44]: 43 nM
TGI [44]: 3740 nM
GI50 [45]: 839 nM
TGI [45]: 7230 nM
GI50 [46]: 1600 nM
TGI [46]: 5830 nM
GI50 [47]: 124 nM
TGI [47]: 2590 nM
GI50 [48]: 5270 nM
TGI [48]: 21000 nM
GI50 [49]: 8640 nM
TGI [49]: 27800 nM
GI50 [50]: 3170 nM
TGI [50]: 7630 nM
GI50 [51]: 167 nM
TGI [51]: 1180 nM
GI50 [52]: 656 nM
TGI [52]: 4540 nM
GI50 [53]: 1370 nM
TGI [53]: 2660 nM
GI50 [54]: 50.3 nM
TGI [54]: 1460 nM
GI50 [55]: 1030 nM
TGI [55]: 2220 nM
